Assays:
cGMP levels in C-HUVECs = assay: Cyclic guanosine mono phosphate assay (cGMP), EIA; assay type: cell-based, human
Protocol: Cyclic guanosine mono phosphate assay (cGMP): intracellular cGMP levels were evaluated by using a commercially available Enzyme Immunoassay (EIA) kit (GE Healthcare, Little Chalfont, Buckinghamshire, UK).

[1] = test system: peroxynitrite in C-HUVECs; assay: Peroxynitrite levels by flow cytometry, HKGreen-4A probe; assay type: cell-based, human; conditions: C-HUVEC
Source text: (§1) Cell endothelial cultures and experimental protocols: umbilical cords were obtained from randomly selected healthy Caucasian (Control, C) and with Gestational Diabetes (GD) mothers delivering at the Hospital of Chieti and Pescara. All procedures were in agreement with the ethical standards of the Institutional Committee on Human Experimentation (Reference Number: 1879/09COET) and with the Declaration of Helsinki Principles. After approval of the protocol by the Institutional Review Board, signed informed consent was obtained from each participating subject. Primary C- and GD-HUVECs were obtained and used between the 3rd and 5th passages in vitro. To evaluate the potential cytotoxicity of ovothiol, HUVECs were stimulated for 24 h with different doses (10-100 μM) of ovothiol A. The best doses of ovothiol A were used to evaluate their effects on the cells treated with TNF (1 ng/ml, Sigma Aldrich) which activated the inflammatory response. Briefly, HUVECs were grown to sub-confluence in complete culture medium DMEM/M199 (Mascia Brunelli, Italia). The cells were pre-incubated with ovothiol A (10 and 50 μM) for 24 hours or with medium alone as basal condition. Subsequently the cells were stimulated with TNF for 16 hours.
(§2) Flow cytometry: for flow cytofluorimetry analysis, C- and GD-HUVECs were stimulated as described in the experimental protocols. Non-permeabilized cells were detached by tetra-acetic ethylene-diamine acid solution (EDTA) 5 mM, washed and resuspended in bovine serum albumin (BSA) 0.5%. Cells harvested by centrifugation at 800 rpm for 15 min were incubated with anti-VCAM-1 PE-conjugate (1:100, phycoerythrin; Biolegend, San Diego, Calif., USA) and anti-ICAM-1 FITC-conjugate (1:100, fluorescein isothiocyanate; Biolegend) antibodies, both for 30 min at 4° C. The intracellular levels of peroxynitrite (ONOO—) were detected in C- and GD-HUVECs by using the HKGreen-4A probe (10 μM, 30 min at 37° C.) synthesized and provided by the laboratory of Prof. Dan Yang's. Reactive Oxygen Species (ROS) levels were evaluated with the fluorogenic reagent dichlorofluorescein diacetate (DCF-DA, Sigma-Aldrich) (20 μM, 45 min at 37° C.). All samples were analyzed using a FACS Calibur or FACS Canto II (BD Bioscences). The levels of membrane proteins (VCAM-1 and ICAM-1), fluorescence detection of ONOO— and ROS were evaluated by cytometric analysis of over 10.000 events for each sample. All data were analyzed using FACS Diva (BD Bioscences) and FlowJo v.8.8.6 software (TreeStar, Ashland, Oreg.) and expressed as percentage (%) of positive cells or MFI (Mean Fluorescence Intensity) Ratio. The MFI Ratio was calculated by dividing the MFI of positive events by the MFI of negative events (MFI of secondary antibody).

[2] = test system: peroxynitrite in GD-HUVECs; assay: as above; assay type: cell-based, human; conditions: GD-HUVEC
Source text: as §1, §2

C-HUVECs [3] = assay: MTT assay, cell viability; assay type: cell-based, human; conditions: C-HUVEC
Source text: as §1
(§3) MTT assay: ovothiol effect on the viability of C- and GD-HUVECs was evaluated by the 3-(4,5 dimethylthiazolyl-2)-2,5-diphenyltetrazolium bromide (MTT, Sigma-Aldrich) assay. 1×10^5 cells were plated in 96-well plates, grown to sub-confluence with the medium alone (as control) or stimulated for 24 h with growing doses of ovothiol A (10-100 μM), in the presence or absence of TNFα stimulation (1 ng/ml). A solution of MTT in phosphate buffer saline (PBS) was added to each well to a final concentration of 5 mg/ml. After 3 h incubation at 37° C., the cellular viability was evaluated before addition of 0.2 ml dimethylsulfoxide (DMSO, Sigma-Aldrich) for crystal solubilization in the vital cells. The absorbance at 540 nm was read using a micro-plate reader (SpectraMAX 190, Molecular Devices Inc., Sunnyvale, Calif., USA) and results were expressed as the absorbance at 540 nm (ABS 540 nm).

GD-HUVECs [4] = assay: MTT assay, cell viability; assay type: cell-based, human; conditions: GD-HUVEC
Source text: as §1, §3

C-HUVECs [5] = assay: Analysis of ovothiol A levels in cell cultures (HPLC); assay type: in vitro ADME, human
Protocol: (§4) Analysis of Ovothiol A levels in cell cultures: HUVEC cells (1,2×10^6 cellule) were cultured in flasks (25 cm^2) in the absence and in the presence of 50 μM ovothiol A and collected after incubation at different time intervals. The culture media were recovered by centrifugation and frozen for ovothiol A quantitation by HPLC analysis. The cellular pellets were resuspended in PBS pH 7.5, sonicated three times for 15 sec and 30% amplitude. The samples were then centrifuged at 13.000 rpm over 15 min to remove cellular debris, ultrafiltered by Microcon 3 to remove all molecules with MW>3 kDa and frozen for further analysis by HPLC. HPLC analyses were performed in duplicate on an LC10AD instrument equipped with binary pumps and a Shimadzu SPD-10AVP detector set at 254 nm and 280 nm. A Phenomenex Synergi Sphereclone octadecylsilane (25 cm×0.46 cm, 4 μm particle size) column was used with 1% formic acid taken to pH 4.5 with ammonia, as the eluant, at a 0.7 mL/min flow rate.

GD-HUVECs [6] = assay: as above; assay type: in vitro ADME, human
Protocol: as §4

[7] = Ovothiol A level in medium without the cells (HPLC); assay type: in vitro ADME; conditions: Control: medium without the cells, ovothiol A 50 μM
Protocol: as §4

[8] = test system: U937 monocytes adhesion to C-HUVECs; assay: Adhesion of monocytes to endothelium assay; assay type: cell-based, human; conditions: C-HUVEC, 24 hours pre-treatment with 10 and 50 μM, TNFα 1 ng/ml 16 hours
Source text: (§5) Cell endothelial cultures and experimental protocols: umbilical cords were obtained from randomly selected healthy Caucasian (Control, C) and with Gestational Diabetes (GD) mothers delivering at the Hospital of Chieti and Pescara. All procedures were in agreement with the ethical standards of the Institutional Committee on Human Experimentation (Reference Number: 1879/09COET) and with the Declaration of Helsinki Principles. After approval of the protocol by the Institutional Review Board, signed informed consent was obtained from each participating subject. Primary C- and GD-HUVECs were obtained and used between the 3rd and 5th passages in vitro. […]
(§6) Adhesion of monocytes to endothelium assay: adhesion of U937 monocytes to C- and GD-HUVECs was evaluated in the basal state, after 16 hours of TNFα treatment (1 ng/ml) and in presence of ovothiol A (10-50 μM). The cells were grown to confluence in six-well culture plates and U937 adhesion was evaluated as previously described (Di Tomo, P., Lanuti, P., Di Pietro, N., Baldassarre, M. P. A., Marchisio, M., Pandolfi, A., Consoli, A., Formoso, G. (2017) Liraglutide mitigates TNF-α induced pro-atherogenic changes and Microvesicles release in HUVEC from diabetic women. Diabetes Metab. Res. Rev. doi: 10.1002/dmrr.2925).

[9] = test system: U937 monocytes adhesion to GD-HUVECs; assay: Adhesion of monocytes to endothelium assay; assay type: cell-based, human; conditions: GD-HUVEC, 24 hours pre-treatment with 10 and 50 μM, TNFα 1 ng/ml 16 hours
Source text: as §5, §6

VCAM-1 on C-HUVEC = assay: Flow cytometry, membrane exposure of VCAM-1; assay type: cell-based, human; conditions: 50 μM ovothiol A, TNFα
Source text: as §5
(§7) Flow cytometry: for flow cytofluorimetry analysis, C- and GD-HUVECs were stimulated as described in the experimental protocols. […] The intracellular levels of peroxynitrite (ONOO—) were detected in C- and GD-HUVECs by using the HKGreen-4A probe (10 μM, 30 min at 37° C.) synthesized and provided by the laboratory of Prof. […] Reactive Oxygen Species (ROS) levels were evaluated with the fluorogenic reagent dichlorofluorescein diacetate (DCF-DA, Sigma-Aldrich) (20 μM, 45 min at 37° C.). All samples were analyzed using a FACS Calibur or FACS Canto II (BD Bioscences). The levels of membrane proteins (VCAM-1 and ICAM-1), fluorescence detection of ONOO— and ROS were evaluated by cytometric analysis of over 10.000 events for each sample. […]

VCAM-1 on GD-HUVEC = assay: Flow cytometry, membrane exposure of VCAM-1; assay type: cell-based, human; conditions: 50 μM ovothiol A, TNFα
Source text: as §5, §7

ICAM-1 on C-HUVEC = assay: Flow cytometry, membrane exposure of ICAM-1; assay type: cell-based, human; conditions: 50 μM ovothiol A, TNFα
Source text: as §5, §7

ICAM-1 on GD-HUVEC = assay: Flow cytometry, membrane exposure of ICAM-1; assay type: cell-based, human; conditions: 50 μM ovothiol A, TNFα
Source text: as §5, §7

ROS in C-HUVECs = assay: ROS levels by flow cytometry (DCF-DA); assay type: cell-based, human; conditions: C-HUVEC, in the absence of TNFα
Source text: as §5, §7

ROS in GD-HUVECs = assay: ROS levels by flow cytometry (DCF-DA); assay type: cell-based, human; conditions: GD-HUVEC, under inflammatory conditions (TNFα)
Source text: as §5, §7

[10] = test system: intracellular GSH in GD-HUVECs; assay: Determination of intracellular glutathione levels (GSH); assay type: cell-based, human; conditions: GD-HUVEC, after 10 minutes of incubation of ovothiol A
Protocol: as §4, with “A Phenomenex Synergi Sphereclone octadecylsilane (25 cm×0.46 cm, 4 μm particle size) column was used with 1% formic acid taken to pH 4.5 with ammonia, as the eluant, at a 0.7 mL/min flow rate.” left out
Determination of intracellular glutathione levels (GSH): total GSH was determined by using the Glutathione Assay Kit (Sigma). […] The supernatant was used for the determination of glutathione by performing a kinetic assay in which catalytic amounts (nmoles) of GSH caused a continuous reduction of 5,5-dithiobis (2-nitrobenzoic acid) (DTNB) to 5-thio-2-nitrobenzoic (TNB), measured at 405 nm by a Thermo Scientific™ Multiskan™ FC Microplate Photometer.

Hep-G2 cell line = conditions: epatocarcinoma cell lines; cited from earlier work
[11] = Ionomycin 50 nM in combination with PMA 0.3 μM, positive control
[12] = 50 μM, in the presence or absence of TNFα
[13] = C-HUVECs incubated 30 minutes with ovothiol A 50 μM, HPLC
[14] = GD-HUVECs incubated 30 minutes with ovothiol A 50 μM, HPLC
[15] = pre-treatment with 50 μM, after exposure to TNFα

C[C@H](CCC(=O)O)C[C@H](C)C[C@H](C)C(=O)/C=C(\O)[C@H](C)C[C@H](C)C/C=C/[C@@H](C)[C@@H](O)[C@@H](C)[C@@H](O)C[C@@H]1CC[C@@](C)([C@H]2CC[C@@](C)([C@@H](C)O)O2)O1 [Ionomycin, reference compound]
cGMP levels (cGMP levels in C-HUVECs; C-HUVEC, positive control): induced the increase of cGMP levels
peroxynitrite formation [1, 11]: induced peroxynitrite formation
peroxynitrite formation [2, 11]: induced peroxynitrite formation

COC(=O)[C@@H](N)CCCNC(=N)N[N+](=O)[O-] [L-NAME, reference compound]
cGMP levels, addition of L-NAME to Ionomycin (cGMP levels in C-HUVECs; C-HUVEC, Ionomycin-stimulated): restored the initial levels

ovothiol A
cell viability parameters (MTT) (C-HUVECs [3]; [12]): no significant changes
cytotoxicity (viability by MTT assay) (C-HUVECs [3]; 100 μM ovothiol A, 24 h): cytotoxic
cell viability parameters (MTT) (GD-HUVECs [4]; [12]): no significant changes
cytotoxicity (viability by MTT assay) (GD-HUVECs [4]; 100 μM ovothiol A, 24 h): cytotoxic
kinetic decay of the compound in the medium (C-HUVECs [5]; C-HUVEC medium, 50 μM, compared to the medium without the cells): very rapid
ovothiol A in cells (C-HUVECs [5]; [13]): 1.18 pmol/cell
ovothiol A in medium (C-HUVECs [5]; [13]): 14.86 ± 1.24 µmol/L
kinetic decay of the compound in the medium (GD-HUVECs [6]; GD-HUVEC medium, 50 μM, compared to the medium without the cells): very rapid
ovothiol A in cells (GD-HUVECs [6]; [14]): 1.53 pmol/cell
ovothiol A in medium (GD-HUVECs [6]; [14]): 10.08 ± 1.68 µmol/L
ovothiol A in medium [7]: 45 µmol/L
U937 cell adhesion (number of adherent cells) [8]: only on GD-HUVECs
U937 cell adhesion (number of adherent cells) [9]: significant reduction
exposure of VCAM-1 on the membrane (VCAM-1 on C-HUVEC): significantly reduced
exposure of VCAM-1 on the membrane (VCAM-1 on GD-HUVEC): significantly reduced
effect on ICAM-1 levels (membrane exposure) (ICAM-1 on C-HUVEC): did not reach the statistical significance
effect on ICAM-1 levels (membrane exposure) (ICAM-1 on GD-HUVEC): did not reach the statistical significance
cGMP levels, effect of ovothiol A with TNFα treatment (cGMP levels in C-HUVECs; C-HUVEC, TNFα+Ovot): abolished
cGMP levels (cGMP levels in C-HUVECs; C-HUVEC, ovothiol A treatment): significantly increased
cGMP levels, effect of ovothiol A with L-NAME pre-incubation (cGMP levels in C-HUVECs; pre-incubation with L-NAME 1 mM for 45 minutes): not affected
levels of peroxynitrite [1, 15]: significantly reduced
levels of peroxynitrite [2, 15]: significantly reduced
ROS levels (ROS in C-HUVECs): reduced ROS levels
ROS levels (ROS in GD-HUVECs): reduced ROS levels
intracellular GSH levels [10]: increased significantly
autophagy (Hep-G2 cell line): induces autophagy
reduction of reactive oxygen species (Hep-G2 cell line): without inducing a reduction of reactive oxygen species

From patent US20200276165A1, “OVOTIOLS FOR THE TREATMENT OF CHRONIC LOW-GRADE SYSTEMIC INFLAMMATION (CLGSI) AND RELATED DISEASES” (UNIVERSITA' DEGLI STUDI G. D'ANNUNZIO CHIETI - PESCARA, priority 2017, published 2020)
